Assay results taken from the supplement of paper PMC6965134.
± gives the standard deviation of the averaged measurements.

Assay: TIMS collisional cross section (CCS, N2) of the lipid ion; higher = larger ion cross section
Conditions: ionization mode: positive, one isomer drawn

Row | SMILES | TIMS collisional cross section (sample type: Liver) [Å²] | TIMS collisional cross section (sample type: HeLa) [Å²] | TIMS collisional cross section (sample type: plasma) [Å²]
1 | CCCCC/C=C\CCCCCCCC(=O)OC[C@@H](COC(=O)CCCCCCCCCCC)OC(=O)CCCCCCCCCCC [TG 12:0_12:0_15:1] (ion (formula + adduct): [C42H78O6+NH4] 1+) | 280.4 |  | 
2 | CCCCCCCCCCCCCCCC(=O)OC[C@@H](COC(=O)CCCCCCCCCCC)OC(=O)CCCCCCCCCCC [TG 12:0_12:0_16:0] (ion (formula + adduct): [C43H82O6+NH4] 1+) |  | 288 | 
3 | CCCCCC/C=C\CCCCCCCC(=O)OC[C@@H](COC(=O)CCCCCCCCCCC)OC(=O)CCCCCCCCCCC [TG 12:0_12:0_16:1] (ion (formula + adduct): [C43H80O6+NH4] 1+) | 284.2 |  | 284.1
4 | CCCCCCCC/C=C\CCCCCCCC(=O)OC[C@@H](COC(=O)CCCCCCCCCCC)OC(=O)CCCCCCCCCCC [TG 12:0_12:0_18:1] (ion (formula + adduct): [C45H84O6+NH4] 1+) | 291.3 |  | 
5 | CCCCCCCCCCCCC(=O)OC[C@@H](COC(=O)CCCCCCCCCCC)OC(=O)CCCCCCCCCCCC [TG 12:0_13:0_13:0] (ion (formula + adduct): [C41H78O6+NH4] 1+) | 282.7 |  | 
6 | CCCCCCCCCCCCCC(=O)OC[C@@H](COC(=O)CCCCCCCCCCC)OC(=O)CCCCCCCCCCCCC [TG 12:0_14:0_14:0] (ion (formula + adduct): [C43H82O6+NH4] 1+) | 289.1 | 289 | 289.1
7 | CCCCCCCCCCCCCCC(=O)OC[C@@H](COC(=O)CCCCCCCCCCC)OC(=O)CCCCCCCCCCCCC [TG 12:0_14:0_15:0] (ion (formula + adduct): [C44H84O6+NH4] 1+) |  | 291.9 | 
8 | CCCCC/C=C\CCCCCCCC(=O)OC[C@@H](COC(=O)CCCCCCCCCCC)OC(=O)CCCCCCCCCCCCC [TG 12:0_14:0_15:1] (ion (formula + adduct): [C44H82O6+NH4] 1+) |  | 289.5 | 
9 | CCCCCCCCCCCCCCCC(=O)OC[C@@H](COC(=O)CCCCCCCCCCC)OC(=O)CCCCCCCCCCCCC [TG 12:0_14:0_16:0] (ion (formula + adduct): [C45H86O6+NH4] 1+) | 295.2 ± 0.42 | 294.93 ± 0.32 | 295.5
10 | CCCCCC/C=C\CCCCCCCC(=O)OC[C@@H](COC(=O)CCCCCCCCCCC)OC(=O)CCCCCCCCCCCCC [TG 12:0_14:0_16:1] (ion (formula + adduct): [C45H84O6+NH4] 1+) |  | 292.8 | 
11 | CCCCCCCC/C=C\CCCCCCCC(=O)OC[C@@H](COC(=O)CCCCCCCCCCC)OC(=O)CCCCCCCCCCCCC [TG 12:0_14:0_18:1] (ion (formula + adduct): [C47H88O6+NH4] 1+) |  |  | 298.9
12 | CCCCC/C=C\C/C=C\CCCCCCCC(=O)OC[C@@H](COC(=O)CCCCCCCCCCC)OC(=O)CCCCCCCCCCCCC [TG 12:0_14:0_18:2] (ion (formula + adduct): [C47H86O6+NH4] 1+) | 295.4 |  | 295.8
13 | CCCC/C=C\CCCCCCCC(=O)O[C@H](COC(=O)CCCCCCCCCCC)COC(=O)CCCCCCCCCCCCCCC [TG 12:0_14:1_16:0] (ion (formula + adduct): [C45H84O6+NH4] 1+) |  |  | 291.9
14 | CCCC/C=C\CCCCCCCC(=O)O[C@@H](COC(=O)CCCCCCC/C=C\CCCCCC)COC(=O)CCCCCCCCCCC [TG 12:0_14:1_16:1] (ion (formula + adduct): [C45H82O6+NH4] 1+) |  | 290.3 | 
15 | CCCC/C=C\CCCCCCCC(=O)O[C@@H](COC(=O)CCCCCCC/C=C\C/C=C\CCCCC)COC(=O)CCCCCCCCCCC [TG 12:0_14:1_18:2] (ion (formula + adduct): [C47H84O6+NH4] 1+) |  |  | 293.8
16 | CCCCCCCCCCCCCCCCC(=O)OC[C@@H](COC(=O)CCCCCCCCCCC)OC(=O)CCCCCCCCCCCCCC [TG 12:0_15:0_17:0] (ion (formula + adduct): [C47H90O6+NH4] 1+) |  |  | 302.1
17 | CCCCCC/C=C\CCCCCCCC(=O)OC[C@@H](COC(=O)CCCCCCCCCCC)OC(=O)CCCCCCCCCCCCCCC [TG 12:0_16:0_16:1] (ion (formula + adduct): [C47H88O6+NH4] 1+) | 299.2 |  | 
18 | CCCCCCCCCCCCCCCCC(=O)OC[C@@H](COC(=O)CCCCCCCCCCC)OC(=O)CCCCCCCCCCCCCCC [TG 12:0_16:0_17:0] (ion (formula + adduct): [C48H92O6+NH4] 1+) | 304.5 |  | 
19 | CCCCCCCC/C=C\CCCCCCCC(=O)OC[C@@H](COC(=O)CCCCCCCCCCC)OC(=O)CCCCCCCCCCCCCCC [TG 12:0_16:0_18:1] (ion (formula + adduct): [C49H92O6+NH4] 1+) |  | 305.7 | 
20 | CCCCC/C=C\C/C=C\C/C=C\C/C=C\CCCC(=O)OC[C@@H](COC(=O)CCCCCCCCCCC)OC(=O)CCCCCCCCCCCCCCC [TG 12:0_16:0_20:4] (ion (formula + adduct): [C51H90O6+NH4] 1+) |  |  | 307.4
21 | CC/C=C\C/C=C\C/C=C\C/C=C\C/C=C\C/C=C\CCC(=O)OC[C@@H](COC(=O)CCCCCCCCCCC)OC(=O)CCCCCCCCCCCCCCC [TG 12:0_16:0_22:6] (ion (formula + adduct): [C53H90O6+NH4] 1+) | 307.6 |  | 
22 | CCCCCC/C=C\CCCCCCCC(=O)O[C@H](COC(=O)CCCCCCCCCCC)COC(=O)CCCCCCCCCCCCCCCC [TG 12:0_16:1_17:0] (ion (formula + adduct): [C48H90O6+NH4] 1+) | 303 |  | 
23 | CCCCCC/C=C\CCCCCCCC(=O)O[C@@H](COC(=O)CCCCCCC/C=C\CCCCCCCC)COC(=O)CCCCCCCCCCC [TG 12:0_16:1_18:1] (ion (formula + adduct): [C49H90O6+NH4] 1+) |  |  | 303.25 ± 0.35
24 | CCCCC/C=C\C/C=C\CCCCCCCC(=O)OC[C@@H](COC(=O)CCCCCCCCCCC)OC(=O)CCCCCCC/C=C\CCCCCC [TG 12:0_16:1_18:2] (ion (formula + adduct): [C49H88O6+NH4] 1+) | 301.1 |  | 
25 | CCCCCCCCCCCCCCCC(=O)OC[C@@H](COC(=O)CCCCCCCCCCCC)OC(=O)CCCCCCCCCCCC [TG 13:0_13:0_16:0] (ion (formula + adduct): [C45H86O6+NH4] 1+) |  | 295.3 | 
26 | CCCCCCCCCCCCCC(=O)OC[C@@H](COC(=O)CCCCCCCCCCCC)OC(=O)CCCCCCCCCCCCC [TG 13:0_14:0_14:0] (ion (formula + adduct): [C44H84O6+NH4] 1+) |  |  | 292.3
27 | CCCCCCCCCCCCCCCC(=O)OC[C@@H](COC(=O)CCCCCCCCCCCC)OC(=O)CCCCCCCCCCCCC [TG 13:0_14:0_16:0] (ion (formula + adduct): [C46H88O6+NH4] 1+) | 298.5 | 298.2 | 298.4 ± 0.14
